# Tests used:
# [1] = system: photosensitivity of a retina; test: scotopic electroretinography (ERG), blue light-induced macular disease model; assay type: in vivo, C57BL/6 mice
# Description: The C57BL/6 mice, which weighed between 23 and 25 g, were divided into seven groups randomly. In each group, the six mice induced by blue light successfully were incorporated in experiments. The samples dissolved in deuterium-depleted water (DDW) were fed to mice through oral tubes once a day. The groups were named and introduced as follows: • (1) Solvent not classified group (NC): The mice were fed with 0.2 ml deuterium-depleted water (DDW) through tubes; • (2) Negative control group (Blue light (BL)): The mice were fed with 0.2 ml deuterium-depleted water (DDW) through tubes and exposed to blue light; • (3) Low-dosage Y7 probiotics group […]): The mice were fed with low-dosage Y7 probiotics (probiotic counts of 1.0×10^8 CFU/ml dissolved in 0.2 ml DDW per day) and exposed to blue light; • (4) High-dosage Y7 probiotics group […]): The mice were fed with high-dosage Y7 probiotics (probiotic counts of 1.0×10^9 CFU/ml dissolved in 0.2 ml DDW per day) and exposed to blue light; • (5) Positive control group (lutein (LU)): The mice were fed with lutein and exposed to blue light. The recommended human dosage of lutein is 30 mg. The mouse cage (48×25×20 cm) placed inside a stainless ventilated box was equipped with blue light boards as blue light sources around and above. In the experiment of animals exposed to blue light, six-week-old mice staying in the mouse cage were fed with drinking water as well as fodders and exposed to 400 Lux blue light illumination under the light-dark cycle of 12-hour light and 12-hour dark. The experiment was aimed at causing mice' late dry macular disease induced by chronic light injuries for simulating a human being's macular disease after long-term exposure to short-wavelength blue light from 3C products in daily life. The mydriatic agent, Atropine (0.125%), was distilled into mice' eyes for mydriasis in advance. Then, mice were anesthetized with Zoletil (40 mg/kg) and Xylazine (10 mg/kg) through intraperitoneal (IP); 2% Methocel gel as a lubricant was distilled into eyes of a deeply anesthetized mouse having placed on a clean bench. The ERG analysis was enabled with the electrodes installed completely. A mouse was stimulated with single excitation light for collection of ERG from which a negative a-wave and a positive b-wave were generated. For the ERG analysis, the excitation time was defined as the period from the initial time of excitation light emitted to the time of the a-wave (b-wave) peak detected; the amplitude of a-wave was defined as the amplitude difference between the background ERG value at the initial time of excitation light emitted and the ERG value of the a-wave peak; the amplitude of b-wave was defined as the amplitude difference between the ERG value of the a-wave peak and the ERG value of the b-wave peak. Any change observed in the excitation time or an amplitude referred to functions of retinal cells normal or abnormal. In electrophysiology, the a-wave denotes the healthy condition of photoreceptors at outside of a retina; the b-wave denotes the healthy condition of medial nerve cells of a retina such as bipolar cells and horizontal cells; the c-wave denotes the healthy condition of retinal pigment epithelium (RPE) on a retina. In the experiment, the scotopic electroretinography (ERG) was used in inspecting influence of exposure to blue light on photosensitivity of a mouse's retina. When light was received by a mouse's eyes, opsins and 11-cis-retinal on photoreceptor cells were combined with each other for a visual cycle such that a membrane potential difference was produced for transmission of ERG by the retinal neuron layer sequentially, that is, the electroretinographic physiological function test was conducted through recording peak potential differences generated by different nerve cells. […]
# [2] = system: total retinal thickness; test: H&E sections of retinal tissues, total retinal thickness by ImageJ; assay type: in vivo, C57BL/6 mice; settings: Day 35, p<0.05
# Description: The C57BL/6 mice, which weighed between 23 and 25 g, were divided into seven groups randomly. In each group, the six mice induced by blue light successfully were incorporated in experiments. The samples dissolved in deuterium-depleted water (DDW) were fed to mice through oral tubes once a day. The groups were named and introduced as follows: • (1) Solvent not classified group (NC): The mice were fed with 0.2 ml deuterium-depleted water (DDW) through tubes; • (2) Negative control group (Blue light (BL)): The mice were fed with 0.2 ml deuterium-depleted water (DDW) through tubes and exposed to blue light; • (3) Low-dosage Y7 probiotics group […]): The mice were fed with low-dosage Y7 probiotics (probiotic counts of 1.0×10^8 CFU/ml dissolved in 0.2 ml DDW per day) and exposed to blue light; • (4) High-dosage Y7 probiotics group […]): The mice were fed with high-dosage Y7 probiotics (probiotic counts of 1.0×10^9 CFU/ml dissolved in 0.2 ml DDW per day) and exposed to blue light; • (5) Positive control group (lutein (LU)): The mice were fed with lutein and exposed to blue light. The recommended human dosage of lutein is 30 mg. The mouse cage (48×25×20 cm) placed inside a stainless ventilated box was equipped with blue light boards as blue light sources around and above. In the experiment of animals exposed to blue light, six-week-old mice staying in the mouse cage were fed with drinking water as well as fodders and exposed to 400 Lux blue light illumination under the light-dark cycle of 12-hour light and 12-hour dark. The experiment was aimed at causing mice' late dry macular disease induced by chronic light injuries for simulating a human being's macular disease after long-term exposure to short-wavelength blue light from 3C products in daily life. The eyes of a mouse sacrificed after the experiment on Day 35 were taken out for H&E stains. The section of a retinal tissue was checked for any change in each layer of a sacrificed mouse's retina and compared with experimental results of SD-OCT. The images for a fraction of retina below the pupil vertically and nearest to optic nerves were captured from a section through the 200× magnification, as shown in FIG. 6a.
# [3] = LU lutein group, ERG Day 35, p<0.05
"amplitude of a-waves compared with the BL group ([1]; mouse, in vivo)","amplitude of a-waves compared with the LU group ([1]; mouse, in vivo)","amplitude of a-waves compared with the NC group ([1]; mouse, in vivo)","amplitude of c-waves compared with the BL group ([1]; mouse, in vivo)","amplitude of c-waves compared with the BL group [1, 3]",Compound,"amplitude of b-waves, BL group versus treated group ([1]; mouse, in vivo)",total retinal thickness compared with the BL group ([2]; Y7H high-dosage group),total retinal thickness compared with the NC group ([2]; Y7H high-dosage group),total retinal thickness compared with the BL group ([2]; Y7L low-dosage group),total retinal thickness compared with the NC group ([2]; Y7L low-dosage group),"amplitude of b-waves, BL group versus treated group [1, 3]",total retinal thickness compared with the BL group ([2]; LU lutein group),total retinal thickness compared with the NC group ([2]; LU lutein group)
increased significantly,decreased significantly,decreased significantly,significant difference,,Lactobacillus reuteri Y7 [Y7 probiotics],BL group decreased significantly compared with the LU or Y7H group,significant difference,decreased significantly,significant difference,decreased significantly,,,
,,,,significant difference,"CC1=C[C@H](O)CC(C)(C)[C@H]1/C=C/C(C)=C/C=C/C(C)=C/C=C/C=C(C)/C=C/C=C(C)/C=C/C1=C(C)C[C@@H](O)CC1(C)C [lutein, reference compound]",,,,,,BL group decreased significantly compared with the LU or Y7H group,significant difference,decreased significantly
